“And” between values parts separate entries of the source, which are not always exact repeats. Identical values can stand only once.
Target: hNav1.7 alpha subunit (Homo sapiens, UniProt Q15858)
Experiment: Electrophysiology using Sophion QPatch: inhibition of hNav1.7 currents
Format: cell-based
Settings: QPatch 16X whole cell voltage clamp, hNav1.7 alpha HEK 293; holding -80 mV, -120mV for 100ms, step to 0mV; peak inward current; cumulative doses 100pM to 10µM, 10 minutes per dose; extracellular buffer pH 7.4 + 0.1% BSA; n = 9-11 (given for HwTx-IV(acid)); spread type not stated; read-out: IC50 on Nav1.7
Experimental: Electrophysiology using Sophion QPatch^TM
hNav1.7 alpha HEK 293 cell line (NM_002977.2) was obtained from Millipore and cells were cultured in a 50/50 mix of DMEM and Hams F-12 growth media supplemented with 10% FBS. Cells were passaged by Detachin (Genlantis) treatment (5 minutes), seeded 48-72 hours prior to experiments and used between passage 5 and 10. Cells were harvested at 70% confluency and resuspended by trituration in 8ml of Ex-cell ACF CHO serum free media (Sigma) + 20mM HEPES giving a cell density of 2-3x10^6cells/ml.
Solutions for electrophysiology: Extracellular solution contained (in mM) NaCl (145), KCl (2), CaCl2 (2), MgCl2 (1), HEPES (10), pH 7.4 with NaOH, osmolarity adjusted to 300 mOsm with sucrose. Intracellular solution contained (in mM), CsF (140), NaCl (10), EGTA (1), HEPES (10), pH 7.2 with CsOH, osmolarity adjusted to 325 mOsm with sucrose.
Serial dilutions were made in extracellular buffer + 0.1% BSA. Cumulative dose response curves were constructed with doses of 1e-10 to 1e-5M (100pM to 10µM). Each dose was applied for 10 minutes with 3x5µl compound additions spaced 2 seconds apart (Note that complete solution exchange is achieved with volumes of ~2µl).
Nav1.7 currents were measured using the automated electrophysiology platform Qpatch 16X (Sophion) in single hole configuration. […] To measure Nav1.7 currents, membrane potential was held at -80 mV then stepped to -120mV for 100ms to remove fast inactivation, followed by a step to 0mV for 10ms to activate Nav1.7 then returned to -120mV for 100ms. This voltage protocol was repeated at a rate of 0.2Hz with a the membrane potential held at -80mV between sweeps. Data were sampled at 10kHz and filtered using a 4 pole Bessel filter at 3kHz. P/N leak subtraction was utilized with a leak sweep of -10%. Series resistance was compensated 75% as standard. Liquid junction potentials were not corrected.
Peak inward current at 0mV was normalised to cell capacitance (pA/pF). […]

Sequence of hNav1.7 alpha subunit (Q15858 1-1977 isoform Q15858-3): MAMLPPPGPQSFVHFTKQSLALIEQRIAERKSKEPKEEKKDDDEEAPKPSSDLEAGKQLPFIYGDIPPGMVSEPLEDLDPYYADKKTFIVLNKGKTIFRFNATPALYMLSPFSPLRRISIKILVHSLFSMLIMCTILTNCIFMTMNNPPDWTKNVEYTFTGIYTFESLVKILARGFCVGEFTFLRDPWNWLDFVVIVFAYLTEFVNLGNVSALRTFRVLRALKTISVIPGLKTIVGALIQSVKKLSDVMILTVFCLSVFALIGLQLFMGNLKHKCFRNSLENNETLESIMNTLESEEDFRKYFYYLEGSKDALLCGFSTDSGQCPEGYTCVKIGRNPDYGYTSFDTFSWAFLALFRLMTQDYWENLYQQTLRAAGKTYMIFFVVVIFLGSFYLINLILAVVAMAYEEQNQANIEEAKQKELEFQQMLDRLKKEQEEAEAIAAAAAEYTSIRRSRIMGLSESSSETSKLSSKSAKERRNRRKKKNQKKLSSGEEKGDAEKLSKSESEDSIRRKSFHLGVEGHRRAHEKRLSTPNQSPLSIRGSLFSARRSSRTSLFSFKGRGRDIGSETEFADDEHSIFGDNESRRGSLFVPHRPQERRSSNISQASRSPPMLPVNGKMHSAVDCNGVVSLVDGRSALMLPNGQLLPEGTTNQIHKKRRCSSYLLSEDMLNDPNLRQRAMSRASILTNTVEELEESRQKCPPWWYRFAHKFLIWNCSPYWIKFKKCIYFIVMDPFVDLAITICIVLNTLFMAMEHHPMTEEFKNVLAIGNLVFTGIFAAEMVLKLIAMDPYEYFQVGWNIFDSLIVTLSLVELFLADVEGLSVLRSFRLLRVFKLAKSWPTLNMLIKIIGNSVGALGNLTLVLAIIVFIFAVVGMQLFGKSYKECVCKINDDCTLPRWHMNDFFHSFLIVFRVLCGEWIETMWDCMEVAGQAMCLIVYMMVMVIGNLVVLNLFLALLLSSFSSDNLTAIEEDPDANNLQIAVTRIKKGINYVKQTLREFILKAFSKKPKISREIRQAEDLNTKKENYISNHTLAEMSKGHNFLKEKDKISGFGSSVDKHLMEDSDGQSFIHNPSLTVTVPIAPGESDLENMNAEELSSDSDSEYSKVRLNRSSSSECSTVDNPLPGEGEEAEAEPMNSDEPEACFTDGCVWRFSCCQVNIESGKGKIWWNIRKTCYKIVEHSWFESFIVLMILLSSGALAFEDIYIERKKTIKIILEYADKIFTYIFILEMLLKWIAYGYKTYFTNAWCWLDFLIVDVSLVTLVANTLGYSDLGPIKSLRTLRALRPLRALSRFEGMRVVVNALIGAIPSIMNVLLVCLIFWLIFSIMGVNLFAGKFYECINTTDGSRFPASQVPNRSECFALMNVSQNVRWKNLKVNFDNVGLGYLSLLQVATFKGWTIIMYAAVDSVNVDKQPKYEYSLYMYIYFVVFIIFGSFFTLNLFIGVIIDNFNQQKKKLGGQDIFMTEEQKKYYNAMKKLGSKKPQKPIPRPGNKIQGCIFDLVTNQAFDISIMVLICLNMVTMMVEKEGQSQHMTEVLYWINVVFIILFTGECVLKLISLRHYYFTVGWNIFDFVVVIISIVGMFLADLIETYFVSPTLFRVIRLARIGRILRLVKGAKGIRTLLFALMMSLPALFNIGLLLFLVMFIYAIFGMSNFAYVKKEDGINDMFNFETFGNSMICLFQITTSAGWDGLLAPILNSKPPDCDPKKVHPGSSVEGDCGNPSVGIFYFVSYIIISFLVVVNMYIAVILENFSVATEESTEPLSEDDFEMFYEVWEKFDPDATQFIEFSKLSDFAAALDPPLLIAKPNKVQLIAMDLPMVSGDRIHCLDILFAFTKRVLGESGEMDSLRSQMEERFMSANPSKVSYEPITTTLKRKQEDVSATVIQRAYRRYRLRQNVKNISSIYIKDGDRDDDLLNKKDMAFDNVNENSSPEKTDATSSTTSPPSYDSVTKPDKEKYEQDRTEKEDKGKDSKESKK

Question: Which IC50 does the source give for `CC[C@H](C)[C@H](NC(=O)[C@H](CCC(N)=O)NC(=O)[C@H](Cc1ccc(O)cc1)NC(=O)[C@H](CCCCN)NC(=O)[C@@H]1CSSC[C@@H]2NC(=O)[C@H](CCC(N)=O)NC(=O)[C@H](CC(=O)O)NC(=O)[C@H](CC(N)=O)NC(=O)[C@H](CO)NC(=O)[C@@H]3CCCN3C(=O)[C@H](CC(N)=O)NC(=O)[C@@H]3CSSC[C@H](NC(=O)[C@H](C(C)C)NC(=O)[C@H](CC(C)C)NC(=O)[C@H](CCCCN)NC(=O)[C@H](CO)NC(=O)[C@H](CO)NC(=O)[C@H](CCCCN)NC(=O)[C@H](CSSC[C@H](NC(=O)[C@@H](N)CCC(=O)O)C(=O)N[C@@H](CC(C)C)C(=O)N[C@@H](CCC(=O)O)C(=O)N[C@@H]([C@@H](C)CC)C(=O)N[C@@H](Cc4ccccc4)C(=O)N[C@@H](CCCCN)C(=O)N[C@@H](C)C(=O)N3)NC2=O)C(=O)N[C@@H](CO)C(=O)N[C@@H](CCCNC(=N)N)C(=O)N[C@@H](CCCCN)C(=O)N[C@@H]([C@@H](C)O)C(=O)N[C@@H](CCCNC(=N)N)C(=O)N[C@@H](Cc2c[nH]c3ccccc23)C(=O)N1)C(=O)O` [HwTx-IV(acid)] here?
Answer: The IC50 was 463 to 727 nM and 727 nM and 463 nM.

Question: `CC[C@H](C)[C@H](NC(=O)[C@H](CCC(N)=O)NC(=O)[C@H](Cc1ccc(O)cc1)NC(=O)[C@H](CCCCN)NC(=O)[C@@H]1CSSC[C@@H]2NC(=O)[C@H](CCC(N)=O)NC(=O)[C@H](CC(=O)O)NC(=O)[C@H](CC(N)=O)NC(=O)[C@H](CO)NC(=O)[C@@H]3CCCN3C(=O)[C@H](CC(N)=O)NC(=O)[C@@H]3CSSC[C@H](NC(=O)[C@H](C(C)C)NC(=O)[C@H](CC(C)C)NC(=O)[C@H](CCCCN)NC(=O)[C@H](CO)NC(=O)[C@H](CO)NC(=O)[C@H](CCCCN)NC(=O)[C@H](CSSC[C@H](NC(=O)[C@@H](N)CCC(=O)O)C(=O)N[C@@H](CC(C)C)C(=O)N[C@@H](CCC(=O)O)C(=O)N[C@@H]([C@@H](C)CC)C(=O)N[C@@H](Cc4ccccc4)C(=O)N[C@@H](CCCCN)C(=O)N[C@@H](C)C(=O)N3)NC2=O)C(=O)N[C@@H](CO)C(=O)N[C@@H](CCCNC(=N)N)C(=O)N[C@@H](CCCCN)C(=O)N[C@@H]([C@@H](C)O)C(=O)N[C@@H](CCCNC(=N)N)C(=O)N[C@@H](Cc2c[nH]c3ccccc23)C(=O)N1)C(=O)NCC(=O)O` [HwTx-IV^G36(acid)] was tested. Which IC50 did it give?
Answer: Its IC50 is 190 nM and 195 nM.

Question: `CC[C@H](C)[C@H](NC(=O)[C@H](CCC(N)=O)NC(=O)[C@H](Cc1ccc(O)cc1)NC(=O)[C@H](CCCCN)NC(=O)[C@@H]1CSSC[C@@H]2NC(=O)[C@H](CCC(N)=O)NC(=O)[C@H](CC(=O)O)NC(=O)[C@H](CC(N)=O)NC(=O)[C@H](CO)NC(=O)[C@@H]3CCCN3C(=O)[C@H](CC(N)=O)NC(=O)[C@@H]3CSSC[C@H](NC(=O)[C@H](C(C)C)NC(=O)[C@H](CC(C)C)NC(=O)[C@H](CCCCN)NC(=O)[C@H](CO)NC(=O)[C@H](CO)NC(=O)[C@H](CCCCN)NC(=O)[C@H](CSSC[C@H](NC(=O)[C@@H](N)CCC(=O)O)C(=O)N[C@@H](CC(C)C)C(=O)N[C@@H](CCC(=O)O)C(=O)N[C@@H]([C@@H](C)CC)C(=O)N[C@@H](Cc4ccccc4)C(=O)N[C@@H](CCCCN)C(=O)N[C@@H](C)C(=O)N3)NC2=O)C(=O)N[C@@H](CO)C(=O)N[C@@H](CCCNC(=N)N)C(=O)N[C@@H](CCCCN)C(=O)N[C@@H]([C@@H](C)O)C(=O)N[C@@H](CCCNC(=N)N)C(=O)N[C@@H](Cc2c[nH]c3ccccc23)C(=O)N1)C(=O)NCC(N)=O` [HwTx-IV^G36(amide)] was tested. Which IC50 did it give?
Answer: The IC50 was 33 ± 9 nM.

Source: PMC3855799 (PLoS ONE, 2013)
